Test results as given in the NIST ThermoML archive (doi:10.1016/j.fluid.2014.02.027).

Conditions: Liquid; for vapor or sublimation pressure: Closed cell (Static) method

FC(F)(F)C(F)(F)C(F)(C(F)(C(F)(F)F)C(F)(F)F)C(F)(C(F)(F)F)C(F)(F)F
Conditions	vapor or sublimation pressure [kPa]
364.58 K	35
368.2 K	40
373.47 K	48
378.29 K	56
388.47 K	77
398.2 K	103
408.48 K	137
418.26 K	176
428.22 K	226
438.31 K	286
448.23 K	357
458.16 K	438
468.16 K	536
478.24 K	649
488.03 K	778
498.02 K	928
503.12 K	1014
507.94 K	1104

FC(F)(F)C(F)(F)C(F)(C(F)(F)C(F)(F)F)C(F)(C(F)(F)F)C(F)(F)F [perfluoro-2-methyl-3-ethylpentane]
Conditions	Critical pressure [kPa]	Critical temperature [K]	vapor or sublimation pressure [kPa]
358.2 K	–	–	59
368.19 K	–	–	82
378.2 K	–	–	111
388.17 K	–	–	146
398.19 K	–	–	191
408.13 K	–	–	245
418.15 K	–	–	312
428.16 K	–	–	391
438.11 K	–	–	484
448.07 K	–	–	593
458.05 K	–	–	720
468 K	–	–	866
473 K	–	–	947
477.98 K	–	–	1034
482.95 K	–	–	1127
487.89 K	–	–	1225
492.92 K	–	–	1332
497.89 K	–	–	1447
502.9 K	–	–	1571
Direct measurement	1685	–	–
Visual observation in an unstirred cell	–	507.12	–
